Several values for one entry are separate records, joined by “and”; a condition that tells them apart may be missing. Equal values may be shown once. Entries after “also recorded” stand apart in the source; their conditions may differ. Read-outs that look alike come from different tables or passages of the source.
How the values were obtained:
[1] = test system: dogs with homozygous MDR1 gene mutation; conditions: cited from earlier work
[2] = test system: wild-type MDR1 carriers of dog and cat; assay: Rh123 efflux inhibition in MDR1-HEK293 cells, stated for both wild-type MDR1 carriers together; conditions: analyzed inhibitor concentration range, highest 100 μM
Description: (§1) Transport inhibition experiments were performed with 5 μM Rh123 as the probe substrate in stably transfected MDR1‐HEK293 cells. Cells were seeded onto polylysine‐coated 96‐well plates and gene expression was induced with tetracycline treatment at 1 μg/mL. […] Subsequently, the PBS was replaced with 80 μL of transport buffer again containing the respective inhibitor or solvent alone, and cells were further incubated for 60 min at 37°C for the efflux phase.
(§2) All graphs and diagrams were generated with GraphPad Prism 6 (GraphPad Software Inc., San Diego, CA, USA). The IC50 values were determined by nonlinear regression analysis using the equation log (inhibitor) versus response—variable slope settings. Statistical analyses were performed using GraphPad Prism 6. As detailed in the figure legends, either Student's t‐test or two‐way ANOVA was applied, as appropriate.

[3] = molecular target: cat MDR1 wt (feline MDR1 carrier) (Felis catus, UniProt D2KKF0); assay: Rh123 efflux inhibition (IC50) in stably transfected MDR1-HEK293 cells, cat MDR1 wt; conditions: IC50, inhibition of Rh123 efflux, 5 μM Rh123, HEK293 after tetracycline treatment, one value per independent experiment (two experiments)
Sequence of cat MDR1 wt (feline MDR1 carrier) (D2KKF0 entry or part of it): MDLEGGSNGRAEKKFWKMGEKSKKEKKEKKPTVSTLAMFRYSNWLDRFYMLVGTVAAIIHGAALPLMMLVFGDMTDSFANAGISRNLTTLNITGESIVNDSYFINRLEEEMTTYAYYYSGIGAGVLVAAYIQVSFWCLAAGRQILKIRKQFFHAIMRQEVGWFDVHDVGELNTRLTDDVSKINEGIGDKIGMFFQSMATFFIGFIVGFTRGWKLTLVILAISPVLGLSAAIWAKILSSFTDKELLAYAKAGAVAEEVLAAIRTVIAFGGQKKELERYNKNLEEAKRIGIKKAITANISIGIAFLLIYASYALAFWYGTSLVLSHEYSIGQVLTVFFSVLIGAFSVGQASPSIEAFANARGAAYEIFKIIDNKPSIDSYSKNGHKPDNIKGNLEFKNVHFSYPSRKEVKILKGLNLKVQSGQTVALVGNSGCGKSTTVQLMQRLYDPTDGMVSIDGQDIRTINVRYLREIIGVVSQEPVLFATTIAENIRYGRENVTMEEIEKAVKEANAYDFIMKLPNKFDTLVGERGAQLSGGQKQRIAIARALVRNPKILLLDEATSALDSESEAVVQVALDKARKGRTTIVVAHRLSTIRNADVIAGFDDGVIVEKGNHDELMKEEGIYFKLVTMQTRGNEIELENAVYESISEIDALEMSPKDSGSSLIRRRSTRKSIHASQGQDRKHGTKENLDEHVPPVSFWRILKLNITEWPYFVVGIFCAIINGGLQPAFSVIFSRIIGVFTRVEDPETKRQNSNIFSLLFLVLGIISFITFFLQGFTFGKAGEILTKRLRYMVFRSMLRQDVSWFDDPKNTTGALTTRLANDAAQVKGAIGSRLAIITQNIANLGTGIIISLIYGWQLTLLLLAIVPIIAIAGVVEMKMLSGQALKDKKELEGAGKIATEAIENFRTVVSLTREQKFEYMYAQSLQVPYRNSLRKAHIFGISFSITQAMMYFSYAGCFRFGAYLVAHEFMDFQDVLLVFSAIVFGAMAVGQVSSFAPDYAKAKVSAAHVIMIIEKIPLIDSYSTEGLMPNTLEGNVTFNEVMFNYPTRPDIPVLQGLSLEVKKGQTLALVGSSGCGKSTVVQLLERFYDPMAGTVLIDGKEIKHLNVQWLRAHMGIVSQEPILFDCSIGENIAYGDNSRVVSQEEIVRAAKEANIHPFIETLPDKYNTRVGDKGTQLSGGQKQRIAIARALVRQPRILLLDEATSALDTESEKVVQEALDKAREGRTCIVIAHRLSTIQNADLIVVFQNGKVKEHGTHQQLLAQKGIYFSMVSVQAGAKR
Description: as §1, §2

dog MDR1 wt = assay: Rh123 transport experiment in HEK293 cells with/without tariquidar, dog MDR1 wt; format: cell-based; conditions: 1 μM TQD, 5 μM Rh123, HEK293
[4] = test system: MDR1 carrier (parent MDCKII, dog MDR1 wt and cat MDR1 wt MDCKII^MDR1ko cells); assay: Transwell transport experiments in MDCKII cells with Rh123 and [3H]digoxin; format: cell-based; conditions: 1 μM TQD
Description: For transwell transport experiments in the MDCKII cell lines, 3 × 10^5 cells were seeded per 12‐mm/0.4 μm transwell membrane inserts (Sarstedt, Numbrecht, Germany). One day after seeding, the medium was changed. The transport experiments were performed 72 h after seeding and after reaching 100% confluence. Measurement of the transepithelial electrical resistance (TEER) was conducted on each well with the Millicell ERS‐2 electrical resistance system (Millipore) to confirm the integrity of the monolayer. Only cell monolayers that reached > 150 Ω cm^2 were used for the transport experiments. […] Fluorescence of Rh123 was detected with the GloMax plate reader. […] The amount of [^3H]digoxin in the samples was quantified by Tri‐Carb 2910TR Liquid Scintillation Analyzer (Perkin Elmer).
For all transwell experiments with Rh123 and [^3H]digoxin as the substrates, apparent permeability coefficients (P app, cm/s) and the efflux ratios (ER) were calculated as follows: Papp=V/A×C0×dQ/dt where “V” is the volume of the receiver chamber (1.5 or 0.5 mL), “A” is the surface area of the transwell inserts (being 1.1 cm^2), “C 0” is the initial concentration of the compound, and “dQ/dt” is the transport rate.
From the P app values of the AB and BA transport experiments, the ER was calculated as follows: [drawing 1]

[5] = test system: wild-type MDR1 (P-glycoprotein) of dog and cat; assay: Rh123 efflux inhibition in MDR1-HEK293 cells, stated for both wild-type MDR1 carriers together; conditions: dog and cat, IC50 range, inhibition of both wild-type MDR1 carriers (dog and cat), 5 μM Rh123, HEK293, range over both species and experiments
Description: as §1, §2

cat MDR1 wt = assay: Rh123 transport experiment in HEK293 cells with/without tariquidar, cat MDR1 wt; conditions: 1 μM TQD, 5 μM Rh123, HEK293
Description: Cells were seeded onto polylysine‐coated 24‐well plates. Gene expression was induced with 1 μg/mL tetracycline treatment. Cells were grown to confluence over 72 h at 37°C. […] After 30 min pre‐incubation, transport experiments were started by replacing the medium with transport buffer additionally containing 5 μM Rh123. The Rh123 uptake was stopped after 90 min by two‐times washing with ice‐cold PBS. Subsequently, the PBS was again replaced with 250 μL of DMEM as the transport buffer, with or without TQD, and the efflux phase lasted over 60 min at 37°C. Then, experiments were stopped by two‐times washing with ice‐cold PBS. Finally, cells were lysed with 500 μL of 1 N NaOH with 0.1% SDS. Cell‐associated fluorescence of Rh123 was quantified by GloMax microplate reader (Promega). Fluorescence was detected at 490 nm excitation and 510–570 nm emission. […] The absolute fluorescence units per well were normalized to the protein amount and expressed as relative fluorescence units (RFU)/μg protein.

[6] = molecular target: dog MDR1 wt (canine MDR1 carrier) (Canis lupus familiaris, UniProt Q4PLA8); assay: Rh123 efflux inhibition (IC50) in stably transfected MDR1-HEK293 cells, dog MDR1 wt; conditions: for IC50: IC50, inhibition of Rh123 efflux, dog MDR1 wt, 5 μM Rh123, HEK293 after tetracycline treatment, one value per independent experiment (two experiments)
Sequence of dog MDR1 wt (canine MDR1 carrier) (Q4PLA8 entry or part of it): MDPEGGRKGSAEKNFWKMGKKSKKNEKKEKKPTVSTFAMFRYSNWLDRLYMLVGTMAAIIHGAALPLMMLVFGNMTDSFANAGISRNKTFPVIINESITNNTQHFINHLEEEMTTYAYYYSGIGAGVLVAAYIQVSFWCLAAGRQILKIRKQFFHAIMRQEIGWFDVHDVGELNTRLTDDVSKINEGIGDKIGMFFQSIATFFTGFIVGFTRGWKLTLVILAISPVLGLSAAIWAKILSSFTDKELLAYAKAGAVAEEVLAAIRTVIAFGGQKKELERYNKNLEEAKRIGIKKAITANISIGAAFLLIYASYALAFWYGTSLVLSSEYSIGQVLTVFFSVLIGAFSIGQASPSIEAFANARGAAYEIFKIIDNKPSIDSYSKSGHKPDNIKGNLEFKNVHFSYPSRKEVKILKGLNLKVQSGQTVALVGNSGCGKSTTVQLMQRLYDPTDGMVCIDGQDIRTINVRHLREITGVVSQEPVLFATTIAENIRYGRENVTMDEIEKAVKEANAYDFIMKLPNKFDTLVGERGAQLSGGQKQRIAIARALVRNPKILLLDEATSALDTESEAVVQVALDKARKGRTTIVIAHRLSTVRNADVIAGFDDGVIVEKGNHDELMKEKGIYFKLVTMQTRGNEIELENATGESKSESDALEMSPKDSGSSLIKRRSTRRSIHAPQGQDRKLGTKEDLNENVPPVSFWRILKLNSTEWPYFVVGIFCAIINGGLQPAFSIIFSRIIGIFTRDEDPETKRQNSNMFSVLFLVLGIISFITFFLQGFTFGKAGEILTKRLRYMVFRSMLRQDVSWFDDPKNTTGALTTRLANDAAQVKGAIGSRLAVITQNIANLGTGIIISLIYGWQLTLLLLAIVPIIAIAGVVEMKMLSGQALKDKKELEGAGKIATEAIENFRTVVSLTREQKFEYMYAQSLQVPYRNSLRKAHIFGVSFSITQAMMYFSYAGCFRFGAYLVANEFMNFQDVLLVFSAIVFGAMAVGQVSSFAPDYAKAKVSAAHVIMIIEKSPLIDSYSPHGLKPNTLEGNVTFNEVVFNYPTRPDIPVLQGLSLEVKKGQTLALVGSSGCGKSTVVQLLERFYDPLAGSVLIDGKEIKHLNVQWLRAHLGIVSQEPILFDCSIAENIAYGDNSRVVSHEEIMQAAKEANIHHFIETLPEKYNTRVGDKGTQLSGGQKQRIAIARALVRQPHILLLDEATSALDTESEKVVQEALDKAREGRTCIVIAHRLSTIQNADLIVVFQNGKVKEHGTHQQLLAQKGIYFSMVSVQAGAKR
Description: as §1, §2

MDR1 carrier = test system: MDR1 carrier; design: method as in Lespine et al. [2007]; conditions: membrane vesicles from DC-3F-/ADX MDR1-overexpressing cells; ref Lespine et al. [2007]; read-out: Ki, ATPase activity of the MDR1 carrier stimulated by verapamil; cited from earlier work
[7] = stably transfected MDR1-HEK293 cells (tetracycline-induced), probe rhodamine 123 (Rh123), 5 μM

Structure (SMILES) | IC50 [3] | IC50 at 60 min [5, 7] [µM] | IC50 [6] | IC50 at 60 min [5] [µM] | further results
O=C(CNC(=O)c1ccc(C2=NO[C@](c3cc(Cl)cc(C(F)(F)F)c3)(C(F)(F)F)C2)c2ccccc12)NCC(F)(F)F [afoxolaner] |  |  |  |  | Safety of oral administration ([1]; dogs with homozygous MDR1 gene mutation, monotherapy or in combination with milbemycin oxime, ref Drag et al. [2022]): safe; Interaction with / inhibition of the MDR1 carriers from either species [2]: no detectable interaction; also recorded: no inhibition
CO[C@H]1C[C@H](O[C@H]2[C@H](C)O[C@@H](O[C@@H]3/C(C)=C/C[C@@H]4C[C@@H](C[C@]5(C=C[C@H](C)[C@@H](C6CCCCC6)O5)O4)OC(=O)[C@@H]4C=C(C)[C@@H](O)[C@H]5OC/C(=C\C=C\[C@@H]3C)[C@]54O)C[C@@H]2OC)O[C@@H](C)[C@@H]1O [doramectin] |  |  |  |  | Outcome of off-label treatment ([1]; dogs with homozygous MDR1 mutation, 0.6 mg/kg subcutaneous injection, ref Mealey et al. [2001], Hopper et al. [2008], Geyer and Janko [2012]): fatal cases of neurological toxicity
COc1cc2c(cc1OC)CN(CCc1ccc(NC(=O)c3cc(OC)c(OC)cc3NC(=O)c3cnc4ccccc4c3)cc1)CC2 [tariquidar] | 0.14 µM and 0.23 µM | 0.1 to 0.2 | 0.06 µM and 0.12 µM |  | Effect on Rh123 efflux activity of wild-type canine MDR1 (dog MDR1 wt): fully abolished; Effect on transcellular transport of [3H]digoxin ([4]; 1 μM [3H]digoxin, dog MDR1 wt and cat MDR1 wt cell lines): completely abolished; Effect on transcellular transport of Rh123 ([4]; 5 μM Rh123, dog MDR1 wt and cat MDR1 wt cell lines): completely abolished; Effect on Rh123 efflux activity of wild-type feline MDR1 (cat MDR1 wt): TQD‐sensitive reduction in Rh123 accumulation
CS(=O)(=O)CC(=O)N1CC2(C1)OCc1cc(C3=NO[C@@](c4cc(Cl)c(F)c(Cl)c4)(C(F)(F)F)C3)ccc12 [sarolaner] | 56.5 µM and 35.1 µM |  | 41.6 µM and 30 µM | 30 to 57 | 
Cc1cc(C2=NO[C@@](c3cc(Cl)c(Cl)c(Cl)c3)(C(F)(F)F)C2)sc1C(=O)NCC(=O)NCC(F)(F)F [lotilaner] | 17.5 µM and 10.9 µM | 11 to 23 | 23.2 µM and 10.9 µM |  | 
C/C=C/C[C@@H](C)C(=O)[C@H]1C(=O)N[C@@H](C(C)C)C(=O)N(C)CC(=O)N(C)[C@@H](CC(C)C)C(=O)N[C@@H](C(C)C)C(=O)N(C)[C@@H](CC(C)C)C(=O)N[C@@H](C)C(=O)N[C@H](C)C(=O)N(C)[C@@H](CC(C)C)C(=O)N(C)[C@@H](CC(C)C)C(=O)N(C)[C@@H](C(C)C)C(=O)N1C [PSC833, valspodar] | 1.5 µM |  | 0.66 µM and 0.95 µM | 1 to 2 | 
CO[C@H]1C[C@H](O[C@@H]2/C(C)=C/C[C@@H]3C[C@@H](C[C@]4(CC[C@H](C)[C@@H](C5CCCCC5)O4)O3)OC(=O)[C@@H]3C=C(C)/C(=N/O)[C@H]4OC/C(=C\C=C\[C@@H]2C)[C@]43O)O[C@@H](C)[C@@H]1O [selamectin] | 14.3 µM and 10.3 µM |  | 21.5 µM and 15.7 µM | 10 to 22 | Oral dose remaining without clinical symptoms of neurological toxicity ([1]; ivermectin-sensitive Collies, oral, ref Geyer and Janko [2012]): exceeding 15 mg/kg; Ki (MDR1 carrier): 1 µM
Cc1cc(C2=NO[C@](c3cc(Cl)cc(Cl)c3)(C(F)(F)F)C2)ccc1C(=O)NCC(=O)NCC(F)(F)F [fluralaner] | 69.9 µM and > 100 µM |  |  |  | Safety of oral administration ([1]; Collies with homozygous MDR1 gene mutation, ref Walther et al. [2014]): treatment safety without neurological toxicity; Inhibition of the canine MDR1 carrier ([6]; up to the maximum tested concentration of 100 μM): did not inhibit
CO/N=C1\C[C@]2(C[C@@H]3C[C@@H](C/C=C(\C)C[C@@H](C)/C=C/C=C4\CO[C@@H]5[C@H](O)C(C)=C[C@@H](C(=O)O3)[C@]45O)O2)O[C@H](/C(C)=C/C(C)C)[C@H]1C [moxidectin] | 9.2 µM and 8.4 µM | 8 to 21 | 21.2 µM and 15.2 µM |  | 

Source: publication PMC13159774, “Functional Characterization of the Cat and Dog Wild‐Type and Mutant MDR1 Carrier Proteins and Frequency of the MDR1 Gene Mutation in 800 Cats From Germany” (Journal of Veterinary Pharmacology and Therapeutics, 2025)
